The subject of series [1] is CA20948 tumor-bearing mice. Description: Contrast agent-mediated optical imaging / biodistribution in tumor (CA20948) bearing mice. Type of series: in vivo. The settings on record: 0.5 mL of a 1 μM solution via lateral tail vein. An excerpt:
The instrument consists of an excitation source and a charge-coupled device (CCD) camera for signal detection. To image compounds such as compound 18 that absorb and emit radiation in the near infrared region, a nominal 780 nm collimated solid state laser source was used to excite the compounds. The nominal 50 mW of incident power from the laser was reduced to about 20 mW at the output of the fiber optic bundle. A CCD camera (12 bit, 1024×1024 pixel, back illuminated) was equipped with the appropriate interference filter to capture the emitted photons at 830 nm. Biodistribution of the dyes and receptor-specific optical contrast agent in mice were performed by injecting 0.5 mL of a 1 μM solution of the compound via the lateral tail vein of tumor (CA20948) bearing mice. […] In contrast, injection of somatostatin-avid optical probes in CA20948 tumor-bearing mice preferentially accumulates in the tumor.

In another series the target is T1, SSTR2 (Rattus norvegicus, UniProt P30680).
T1 construct: A preparation of cell membranes was made from AR42J cells by brief sonication; endogenous in cells; host or cells: AR42J rat pancreatic carcinoma cells (membrane preparation)
T1 sequence (P30680 whole entry): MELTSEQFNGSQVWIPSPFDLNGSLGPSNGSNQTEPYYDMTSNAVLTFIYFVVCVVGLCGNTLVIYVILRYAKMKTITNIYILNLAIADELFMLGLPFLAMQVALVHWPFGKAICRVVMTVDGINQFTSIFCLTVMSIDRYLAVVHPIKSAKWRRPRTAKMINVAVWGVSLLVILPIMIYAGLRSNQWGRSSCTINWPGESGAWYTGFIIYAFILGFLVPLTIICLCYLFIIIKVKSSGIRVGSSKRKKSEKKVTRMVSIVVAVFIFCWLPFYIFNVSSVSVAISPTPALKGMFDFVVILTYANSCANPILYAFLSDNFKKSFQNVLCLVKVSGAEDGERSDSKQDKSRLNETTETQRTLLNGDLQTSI
Description: Receptor binding affinity: competition with 111In-DTPA-octreotide in AR42J tumor cell membranes. The settings on record: 37° C., 2 h, radioligand 111In-DTPA-octreotide, read-out: IC50 relative to 111In-DTPA-octreotide. How it is done: The binding affinity of somatostatin analogues was carried out using ^111In-DTPA-octreotide in AR42J tumor cells according to previously reported methods with minor modifications (Lewis, J. S., Lewis, M. R., Srinivasan, A., Schmidt, M. A., Wang, J., and Anderson, C. J. (1999) Comparison of Four ^64Cu-labeled Somatostatin Analogs in vitro and in a Tumor-bearing Rat Model: Evaluation of New Derivatives for PET Imaging and Targeted Radiotherapy. J. Med. Chem. 42, 1.341-1347). The AR42J rat pancreatic carcinoma cell line is known to express SSTR2 both in vitro and in vivo ((Rosewicz, S., Vogt, D., Harth, N., Grund, C., Franke, W. W., Ruppert, S., Schweitzer, E., Riecken, E.-O., and Wiedenman, B. (1992) An Amphicrine Pancreatic Cell Line: AR42J Cells Combine Exocrine and Neuroendocrine Properties. Eur. J. Cell Biol. 59, 80-91; Christophe, J. (1994) Pancreatic Tumoral Cell Line AR42J: An Amphicrine Model. Am. J.
Physiol. (Gastrointest. Liver Physiol.) 266 (29), G963-G971). […] The filters containing membrane-bound radioactivity were removed from the assay plate and counted using a Beckman 8000 automated well-typed counter (Fullerton, Calif.). Specific binding was calculated by subtracting the non-specifically bound radioactivity from that of total binding. The best-fit IC50 values were calculated using PRISM™ (Graphpad, San Diego, Calif.). […]

The source of these data is US7850946B2, “Macrocyclic cyanine and indocyanine bioconjugates provide improved biomedical applications” (Washington University in St. Louis, priority 2003, dated 2010).

In general, IC50 refers to the point on the concentration scale where inhibition reaches its midpoint.

Starred links: 1 amine or outer side, 2 acyl side, 3 side chain; linkers in the order of their positions; H or OH if unused. Positions of bridges follow the written chain, without caps; N, C: chain ends. Non-standard residues stand in square brackets, D forms with d. Residues, ends and D or L forms follow the SMILES beside them. X1 = CC1(C)C(/C=C/C=C/C=C/C=C2/N(CCC(=O)[*:2])c3ccc4ccccc4c3C2(C)C)=[N+](CCC(=O)[*:1])c2ccc3ccccc3c21

Regarding `CC1(C)C(/C=C/C=C/C=C/C=C2/N(CCC(=O)O)c3ccc4ccccc4c3C2(C)C)=[N+](CCC(=O)O)c2ccc3ccccc3c21` [Compound 2, Bispropylcarboxymethylindocyanine Dye], the “time to clearance from the blood postinjection” value in series [1] is ≤ 1 h. For the same molecule, in series [1] (optical imaging 780 nm excitation / 830 nm emission), the “biodistribution: site of accumulation” value is listed as “accumulates in the liver”.
In the case of `C[C@@H](O)[C@@H]1NC(=O)[C@@H]2CSSC[C@H](NC(=O)[C@@H](Cc3ccccc3)NC(=O)CC[N+]3=C(/C=C/C=C/C=C/C=C4/N(CCC(=O)NCCCC[C@@H](C(N)=O)NC1=O)c1ccc5ccccc5c1C4(C)C)C(C)(C)c1c3ccc3ccccc13)C(=O)N[C@@H](Cc1ccc(O)cc1)C(=O)N[C@H](Cc1c[nH]c3ccccc13)C(=O)N[C@@H](CCCCN)C(=O)N[C@@H]([C@@H](C)O)C(=O)N2` [Compound 18] ([dF]CY[dW]KTCTK-NH2; disulfide 2-7; linker N-9 via X1), the IC50 on SSTR2 was 8.17 nM.
